{"source": "patent US9132140B2", "about": "“Boronic acid derivatives and therapeutic uses thereof” (Rempex Pharmaceuticals, Inc., priority 2013, dated 2015)", "key": {"[1]": {"test_system": "ECM6711 (pUCP24-VIM-1)", "experiment": "microbe, parasite or virus in culture", "format": "cell-based, E. coli", "settings": "Escherichia coli, read-out: Imipenem MIC Alone"}, "[2]": {"test_system": "KP1054 (VIM-1, SHV-11)", "format": "cell-based, Klebsiella pneumoniae", "from_the_text": "(§1) Several strains simultaneously expressing both class A and class B carbapenemases, which were constructed using conjugation, were also included in the panel."}, "[3]": {"test_system": "KPM1347 (NDM-1 SHV CTX-M-15)", "format": "cell-based, Klebsiella pneumoniae", "from_the_text": "as §1"}, "[4]": {"test_system": "KPM1107 (NDM, KPC)", "format": "cell-based, Klebsiella pneumoniae", "from_the_text": "as §1"}, "[5]": {"test_system": "KP1081 (NDM-1, TEM-1, SHV-11, CMY-6, CTX-M-15)", "format": "cell-based, Klebsiella pneumoniae", "from_the_text": "as §1"}, "[6]": {"test_system": "KPM1111 (NDM, KPC)", "format": "cell-based, Klebsiella pneumoniae", "from_the_text": "as §1"}, "[7]": {"test_system": "KP1084 (KPC-3, SHV-11, TEM-1)", "format": "cell-based, Klebsiella pneumoniae", "from_the_text": "as §1"}, "[8]": {"test_system": "KP1097 (IMP-1 SHV)", "format": "cell-based, Klebsiella pneumoniae", "from_the_text": "as §1"}, "[9]": {"test_system": "KP1064 (KPC TEM SHV)", "format": "cell-based, Klebsiella pneumoniae", "from_the_text": "as §1"}, "[10]": {"test_system": "KP1098 (IMP-26 TEM SHV)", "format": "cell-based, Klebsiella pneumoniae", "from_the_text": "as §1"}, "[11]": {"test_system": "KP1061 (KPC TEM SHV)", "format": "cell-based, Klebsiella pneumoniae", "from_the_text": "as §1"}, "[12]": {"test_system": "KPM1123 (KPC-2 TEM SHV)", "format": "cell-based, Klebsiella pneumoniae", "from_the_text": "as §1"}, "[13]": {"test_system": "KP1004 (KPC TEM SHV)", "format": "cell-based, Klebsiella pneumoniae", "from_the_text": "as §1"}, "[14]": {"test_system": "KPM1108 (NDM, KPC)", "format": "cell-based, Klebsiella pneumoniae", "from_the_text": "as §1"}, "[15]": {"test_system": "KPM1097 (NDM, KPC)", "format": "cell-based, Klebsiella pneumoniae", "from_the_text": "as §1"}, "[16]": {"test_system": "KP1065 (VIM-1, SHV-11)", "format": "cell-based, Klebsiella pneumoniae", "from_the_text": "as §1"}, "[17]": {"test_system": "KPM1344 (VIM-1)", "format": "cell-based, Klebsiella pneumoniae", "from_the_text": "as §1"}, "[18]": {"test_system": "KPM1346 (NDM-1 TEM SHV CTX-M-15 CMY)", "format": "cell-based, Klebsiella pneumoniae", "from_the_text": "as §1"}, "[19]": {"test_system": "KPM1110 (NDM, KPC)", "format": "cell-based, Klebsiella pneumoniae", "from_the_text": "as §1"}, "[20]": {"test_system": "KP1070 (KPC TEM SHV)", "format": "cell-based, Klebsiella pneumoniae", "from_the_text": "as §1"}, "[21]": {"test_system": "KP1059 (VIM-1, SHV-11)", "format": "cell-based, Klebsiella pneumoniae", "from_the_text": "as §1"}, "[22]": {"test_system": "KPM1345 (VIM-1 SHV)", "format": "cell-based, Klebsiella pneumoniae", "from_the_text": "as §1"}, "[23]": {"test_system": "KP1014 (Vim-1, TEM, SHV)", "format": "cell-based, Klebsiella pneumoniae", "from_the_text": "as §1"}}, "data": [{"compound": "C[C@@H](O)[C@H]1C(=O)N2C(C(=O)O)=C(SCCN=CN)C[C@H]12", "note": "[Imipenem, reference compound]", "values": [{"measurement": "MIC", "setting": "[1]", "value": "> 1", "unit": "µg/mL"}, {"measurement": "Carbapenem MIC alone", "setting": "[2]", "value": "Y (key: X: MIC of less than 1 μg/mL; Y: MIC of 1 μg/mL to 10 μg/mL; Z: MIC of greater than 10 μg/mL)"}, {"measurement": "Carbapenem MIC alone", "setting": "[3]", "value": "Z (key: X: MIC of less than 1 μg/mL; Y: MIC of 1 μg/mL to 10 μg/mL; Z: MIC of greater than 10 μg/mL)"}, {"measurement": "Carbapenem MIC alone", "setting": "[4]", "value": "Z (key: X: MIC of less than 1 μg/mL; Y: MIC of 1 μg/mL to 10 μg/mL; Z: MIC of greater than 10 μg/mL)"}, {"measurement": "Carbapenem MIC alone", "setting": "[5]", "value": "Z (key: X: MIC of less than 1 μg/mL; Y: MIC of 1 μg/mL to 10 μg/mL; Z: MIC of greater than 10 μg/mL)"}, {"measurement": "Carbapenem MIC alone", "setting": "[6]", "value": "Z (key: X: MIC of less than 1 μg/mL; Y: MIC of 1 μg/mL to 10 μg/mL; Z: MIC of greater than 10 μg/mL)"}, {"measurement": "Carbapenem MIC alone", "setting": "[7]", "value": "Z (key: X: MIC of less than 1 μg/mL; Y: MIC of 1 μg/mL to 10 μg/mL; Z: MIC of greater than 10 μg/mL)"}, {"measurement": "Carbapenem MIC alone", "setting": "[8]", "value": "Y (key: X: MIC of less than 1 μg/mL; Y: MIC of 1 μg/mL to 10 μg/mL; Z: MIC of greater than 10 μg/mL)"}, {"measurement": "Carbapenem MIC alone", "setting": "[9]", "value": "Z (key: X: MIC of less than 1 μg/mL; Y: MIC of 1 μg/mL to 10 μg/mL; Z: MIC of greater than 10 μg/mL)"}, {"measurement": "Carbapenem MIC alone", "setting": "[10]", "value": "Y (key: X: MIC of less than 1 μg/mL; Y: MIC of 1 μg/mL to 10 μg/mL; Z: MIC of greater than 10 μg/mL)"}, {"measurement": "Carbapenem MIC alone", "setting": "[11]", "value": "Z (key: X: MIC of less than 1 μg/mL; Y: MIC of 1 μg/mL to 10 μg/mL; Z: MIC of greater than 10 μg/mL)"}, {"measurement": "Carbapenem MIC alone", "setting": "[12]", "value": "Z (key: X: MIC of less than 1 μg/mL; Y: MIC of 1 μg/mL to 10 μg/mL; Z: MIC of greater than 10 μg/mL)"}, {"measurement": "Carbapenem MIC alone", "setting": "[13]", "value": "Z (key: X: MIC of less than 1 μg/mL; Y: MIC of 1 μg/mL to 10 μg/mL; Z: MIC of greater than 10 μg/mL)"}, {"measurement": "Carbapenem MIC alone", "setting": "[14]", "value": "Z (key: X: MIC of less than 1 μg/mL; Y: MIC of 1 μg/mL to 10 μg/mL; Z: MIC of greater than 10 μg/mL)"}, {"measurement": "Carbapenem MIC alone", "setting": "[15]", "value": "Z (key: X: MIC of less than 1 μg/mL; Y: MIC of 1 μg/mL to 10 μg/mL; Z: MIC of greater than 10 μg/mL)"}, {"measurement": "Carbapenem MIC alone", "setting": "[16]", "value": "Y (key: X: MIC of less than 1 μg/mL; Y: MIC of 1 μg/mL to 10 μg/mL; Z: MIC of greater than 10 μg/mL)"}, {"measurement": "Carbapenem MIC alone", "setting": "[17]", "value": "Z (key: X: MIC of less than 1 μg/mL; Y: MIC of 1 μg/mL to 10 μg/mL; Z: MIC of greater than 10 μg/mL)"}, {"measurement": "Carbapenem MIC alone", "setting": "[18]", "value": "Z (key: X: MIC of less than 1 μg/mL; Y: MIC of 1 μg/mL to 10 μg/mL; Z: MIC of greater than 10 μg/mL)"}, {"measurement": "Carbapenem MIC alone", "setting": "[19]", "value": "Z (key: X: MIC of less than 1 μg/mL; Y: MIC of 1 μg/mL to 10 μg/mL; Z: MIC of greater than 10 μg/mL)"}, {"measurement": "Carbapenem MIC alone", "setting": "[20]", "value": "Z (key: X: MIC of less than 1 μg/mL; Y: MIC of 1 μg/mL to 10 μg/mL; Z: MIC of greater than 10 μg/mL)"}, {"measurement": "Carbapenem MIC alone", "setting": "[21]", "value": "Z (key: X: MIC of less than 1 μg/mL; Y: MIC of 1 μg/mL to 10 μg/mL; Z: MIC of greater than 10 μg/mL)"}, {"measurement": "Carbapenem MIC alone", "setting": "[22]", "value": "Y (key: X: MIC of less than 1 μg/mL; Y: MIC of 1 μg/mL to 10 μg/mL; Z: MIC of greater than 10 μg/mL)"}, {"measurement": "Carbapenem MIC alone", "setting": "[23]", "value": "Z (key: X: MIC of less than 1 μg/mL; Y: MIC of 1 μg/mL to 10 μg/mL; Z: MIC of greater than 10 μg/mL)"}]}]}
